The record followed here is ChEMBL document CHEMBL3751684, “2,3-Dihydrobenzofuran privileged structures as new bioinspired lead compounds for the design of mPGES-1 inhibitors” (Bioorg Med Chem, 2016).

Activity calls are given as the source filed them. The rule behind the calls is not given here.

Assay [1] deals with T1, Prostaglandin E synthase (Homo sapiens, UniProt O14684).
T1 sequence (O14684 whole entry): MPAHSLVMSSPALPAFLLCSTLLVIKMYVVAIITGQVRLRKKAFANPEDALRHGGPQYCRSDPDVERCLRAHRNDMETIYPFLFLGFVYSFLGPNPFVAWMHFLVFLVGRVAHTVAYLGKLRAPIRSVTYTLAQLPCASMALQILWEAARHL
In words: Inhibition of PGES-1 in IL-1beta stimulated human A549 cell microsomes using PGH2 as substrate assessed as suppression of PGE2 formation preincubated for 15 mins followed by substrate addition by reversed phase-HPLC analysis.

Assay [2] concerns the target T2, Prostaglandin E synthase (Homo sapiens) (UniProt O14684).
T2 sequence (whole entry): T1 sequence (O14684 whole entry)
Put plainly: Inhibition of PGES-1 in IL-1beta stimulated human A549 cell microsomes using PGH2 as substrate assessed as suppression of PGE2 formation at 10 uM preincubated for 15 mins followed by substrate addition by reversed phase-HPLC analysis.

For the compound `O=C(/C=C/c1cc(O)c2c(c1)[C@@H](C(=O)OCCc1ccccc1)[C@H](c1ccc(O)c(O)c1)O2)OCCc1ccccc1`, the IC50 (commonly the midpoint of a concentration-inhibition curve) in assay [1] is 2100 nM. Same read-out and setting: for `O=C(/C=C/c1cc(O)c2c(c1)[C@H](C(=O)OCCc1ccccc1)[C@@H](c1ccc(O)c(O)c1)O2)OCCc1ccccc1` the value was 2800 nM.

Turning to `CCOC(=O)/C=C/c1cc(O)c2c(c1)[C@@H](C(=O)OCC)[C@H](c1ccc(O)c(O)c1)O2` (racemic), the inhibition result in assay [2] is “Active”. The IC50 in assay [1] was determined as 3600 nM. In the case of `O=C(/C=C/c1cc(O)c2c(c1)[C@@H](C(=O)OCCc1ccccc1)[C@H](c1ccc(O)c(O)c1)O2)OCCc1ccccc1` (racemic) [listing 1 of 2 here], in assay [1], the IC50 worked out at 2000 nM. For `CCCCOC(=O)/C=C/c1cc(O)c2c(c1)[C@@H](C(=O)OCCCC)[C@H](c1ccc(O)c(O)c1)O2` (racemic), in assay [2], the inhibition result was “Active”. Further, the IC50 in assay [1] is 2100 nM.

Consider `COC(=O)/C=C/c1cc(O)c2c(c1)[C@@H](C(=O)OC)[C@H](c1ccc(O)c(O)c1)O2` (racemic), for which, in assay [2], the inhibition entry was “Active”. Moreover, the 50% inhibitory concentration (IC50) in assay [1] worked out at 8500 nM. Regarding `C=Cc1ccc(/C=C/c2ccc3c(c2)[C@@H](c2ccc(C=C)cc2)[C@H](c2ccc(O)cc2)O3)cc1` (racemic), the inhibition result in assay [2] is “inactive”. Same read-out and setting: the result for `COc1cc(/C=C/c2ccc3c(c2)[C@@H](c2cc(OC)cc(OC)c2)[C@H](c2ccc(O)cc2)O3)cc(OC)c1` (racemic) reads “Active”; that for `COc1cc([C@@H]2Oc3c(OC)cc(/C=C/c4cc(OC)c(OC)c(OC)c4)cc3[C@H]2c2cc(OC)c(OC)c(OC)c2)ccc1O` (racemic), “Active”; that for `COc1ccc(/C=C/c2ccc3c(c2)[C@@H](c2ccc(OC)cc2)[C@H](c2ccc(O)cc2)O3)cc1` (racemic), “Active”. As for `O=C(/C=C/c1cc(O)c2c(c1)[C@@H](C(=O)OCCc1ccccc1)[C@H](c1ccc(O)c(O)c1)O2)OCCc1ccccc1` (racemic) [listing 2 of 2 here], the inhibition entry in assay [2] is “Active”.
